One data set has as its target T1, HIV-1 protease (Human immunodeficiency virus type 1 group M subtype B, UniProt P04585).
T1 construct: Recombinant HIV-1 protease (>96% purity); purchased Bachem Bioscience Inc. (King of Prussia, PA)
Nature of the data set: biochemical. The note with it: read-out: Inhib of HIV-Protease IC50. The text has this:
The testing of specific 5,6-dihydropyrones as inhibitors of the HIV aspartyl protease, based on the study of the hydrolysis of an undecapeptide enzyme substrate, and the testing of the 5,6-dihydropyrones as inhibitors of viral growth and infectivity, based on the study of infection of H9 cell lines by the HIV-1iiib strain, are also disclosed. […] The methods employed follow the procedures of Tummino, et al. (Archives of Biochemistry and Biophysics 1995, 316, 523).
(§1) The compounds of the present invention were evaluated for their in vitro inhibition of HIV-1 protease and for their antiviral efficacy in HIV infected lymphocytes.
Recombinant HIV-1 protease (>96% purity) and HIV protease substrate III (the undecapeptide H-His-Lys-Ala-Arg-Val-Leu-Nph-Glu-Ala-Nle-Ser-NH2,>97% purity) were purchased from Bachem Bioscience Inc. (King of Prussia, PA).
The methods employed follow the procedures of Tummino, et al. (Archives of Biochemistry and Biophysics 1995, 316, 523). […] (total volume, 100 μl). […] The final inhibitor concentrations used were 0 (0.1, 0.2, in some experiments), 0.5, 1, 2, 5, 10, 20, 50, and 100 μM. The solution was mixed, incubated for 5 minutes and the reaction quenched by addition of trifluoracetic acid, 2% final. The (leu-p-nitro-phe) bond of the substrate is cleaved by the enzyme and substrate and products separated by reverse-phase HPLC. Absorbance was measured at 220 nm, peak areas determined, and percentage conversion to product used to calculate percentage control (=[% conversion (+inhibitor)/% conversion (-inhibitor)]×100).

Data set [1] in a line: Cellular toxicity in uninfected CEM cells (TC50). Type of data set: cell-based. The settings on record: human, inhibits 50% of the viability of uninfected cells. The method, then:
(§2) Compounds were tested in lymphocyte derived CEM cells using the XTT cytopathic procedures and were performed at Southern Research Institute (Buckheit, et. al. Antiviral Res. 1993, 21, 247; see also Weislow, et al. J Nat. Cancer Inst., 1989, 81, 577). Compound concentrations were 0.32, 1, 3.2, 10, 32 and 100 uM. The EC50 represents the concentration of agent which reduces HIV cytopathic effects 50% relative to untreated control. EC95 represents the concentration of agent protecting the cells 95% relative to untreated control. Cellular toxicity of the agents are estimated from the TC50 which represents the concentration of the agent which inhibits 50% of the viability of uninfected cells.

Data set [2] concerns HIV in lymphocyte derived CEM cells. As to the kind of experiment: Cellular Infection Assay, antiviral efficacy in HIV infected CEM cells (XTT cytopathic procedure). The class given is cell-based. The note with it: Human immunodeficiency virus 1, CCRF-CEM, CEM cells; for EC95: protecting the cells 95% relative to untreated control; for EC50: reduces HIV cytopathic effects 50% relative to untreated control, read-out: Antiviral Efficacy EC50. The method, then: as §1, §2

Where [3] appears, read: 6.0 nM HIV-1 protease, 40 μM substrate III, 37° C., 5 minutes.

SMILES strings stand for the structures. Counter-ions that a name gives are not always drawn. Like-named read-outs stand apart in the source and are kept apart here.

As for `Cc1cc(SC2=C(O)CC(C)(CCc3ccc(O)cc3)OC2=O)c(C(C)(C)C)cc1OCCO` (racemic) [Example 1, 3-[2-tert-Butyl-4-(2-hydroxy-ethoxy)-5-methyl-phenylsulfanyl]-4-hydroxy-6-[2-(4-hydroxy-phenyl)-ethyl]-6-methyl-5,6-dihydro-pyran-2-one, (+/-)], the IC50 on HIV-1 protease (setting [3]) amounted to 0.0068 µM. In addition, the CC50 in data set [1] was above 100 µM. Moreover, in data set [2], it took 18 µM to reach the 95% level (EC95) and the EC50 was 3.4 µM.
On to `Cc1cc(SC2=C(O)CC(CCc3ccc(O)cc3)(C(C)C)OC2=O)c(C(C)(C)C)cc1CO` (racemic) [Example 2, 3-[2-tert-Butyl-4-hydroxymethyl-5-methyl-phenylsulfanyl]-4-hydroxy-6-[2-(4-hydroxy-phenyl)-ethyl]-6-isopropyl-5,6-dihydro-pyran-2-one, (+/-)], for which the IC50 on HIV-1 protease came to 0.0036 µM. The CC50 in data set [1] was above 100 µM. Moreover, in data set [2], it took 1 µM to reach the 95% level (EC95) and the EC50 came out at 0.6 µM.
On to `CCNS(=O)(=O)Oc1cc(C(C)(C)C)c(SC2=C(O)CC(C)(CCc3ccc(O)cc3)OC2=O)cc1C` (racemic) [Example 3], for which the IC50 at HIV-1 protease (setting [3]) came out at 0.0023 µM. In data set [1], this molecule showed a CC50 of 66 µM. In addition, in data set [2], the EC95 came to 12 µM and the EC50 is 1.5 µM.
With `Cc1cc(SC2=C(O)CC(C)(CCc3ccc(O)cc3)OC2=O)c(C(C)(C)C)cc1OS(=O)(=O)N(C)C` (racemic) [Example 4], on HIV-1 protease, the IC50 is 0.0016 µM. This molecule also showed a CC50 in data set [1] of 71 µM. In addition, in data set [2], the EC95 was 17 µM and the EC50 came to 2.5 µM.
`Cc1cc(SC2=C(O)CC(CCc3ccc(O)cc3)(C(C)C)OC2=O)c(C(C)(C)C)cc1OCCO` (racemic) [Example 5, 3-[2-tert-Butyl-4-(2-hydroxy-ethoxy)-5-methyl-phenylsulfanyl]-4-hydroxy-6-[2-(4-hydroxy-phenyl)-ethyl]-6-isopropyl-5,6-dihydro-pyran-2-one, (+/-)]: the IC50 on HIV-1 protease (setting [3]) was determined as 0.0028 µM. Moreover, half-maximal cytotoxicity in data set [1] (CC50) was put at 66 µM. Besides, in data set [2], the EC95 was found to be 3.2 µM and the EC50 was determined as 1.5 µM.
The like results for `Cc1cc(SC2=C(O)CC(C)(CCc3ccc(O)cc3)OC2=O)c(C(C)(C)C)cc1OS(=O)(=O)NC(C)(C)C` (racemic) [Example 6, tert-Butyl-sulfamic acid 5-tert-Butyl-4-{4-hydroxy-6-[2-(4-hydroxy-phenyl)-ethyl]-6-methyl-2-oxo-5,6-dihydro-2H-pyran-3-ylsulfanyl}-2-methyl-phenyl ester, (+/-)] were, in that order, 0.0038 µM, 56 µM, 8.5 µM and 2.3 µM.
As to `CCCCC1(CCc2ccc(O)cc2)CC(O)=C(Sc2cc(C)c(CO)cc2C(C)(C)C)C(=O)O1` (racemic) [Example 7, 6-Butyl-3-[2-tert-butyl-4-hydroxymethyl-5-methyl-phenylsulfanyl]-4-hydroxy-6-[2-(4-hydroxy-phenyl)-ethyl]-5,6-dihydro-pyran-2-one, (+/-)], the IC50 on HIV-1 protease (setting [3]) was 0.0041 µM. This molecule gave a CC50 in data set [1] of 63 µM. Also, in data set [2], the EC95 stood at 3 µM and the EC50 turned out to be 0.9 µM.
`Cc1ccc(C(C)(C)C)c(SC2=C(O)CC(CCc3ccccc3)(c3ccccc3)OC2=O)c1` (racemic) [Ref B, 3-(2-tert-Buty5-methyl-phenylsulfanyl)-4-hydroxy-6-phenethyl-6-phenyl-5,6-dihydro-pyran-2-one, (+/-), reference compound]: the IC50 on HIV-1 protease worked out at 0.035 µM. The CC50 in data set [1] came out at 55 µM. For the same molecule, in data set [2], the EC50 was above 55 µM.
Take `CCNS(=O)(=O)Oc1cc(C(C)(C)C)c(SC2=C(O)CC(CCc3ccc(O)cc3)(C3CCCCC3)OC2=O)cc1C` (stereo not drawn) [Example 8, Ethyl-sulfamic acid 5-tert-butyl-4-{6-cyclohexyl-4-hydroxy-6-[2-(4-hydroxy-phenyl)-ethyl]-2-oxo-5,6-dihydro-2H-pyran-3-ylsulfanyl}-2-methyl-phenyl ester]: the IC50 at HIV-1 protease (setting [3]) was 0.0048 µM. Also, the CC50 in data set [1] was found to be 67 µM. Besides, in data set [2], the EC95 came to 5.3 µM and the EC50 stood at 1.4 µM.
Take `Cc1cc(SC2=C(O)CC(CCc3ccc(O)cc3)(C3CCCCC3)OC2=O)c(C(C)(C)C)cc1CO` (stereo not drawn) [Example 9, 3-(2-tert-Butyl-4-hydroxymethyl-5-methyl-phenylsulfanyl)-6-cyclohexyl-4-hydroxy-6-[2-(4-hydroxy-phenyl)-ethyl]-5,6-dihydro-pyran-2-one]: the IC50 on HIV-1 protease was 0.0025 µM. This molecule came in with a CC50 in data set [1] of 75 µM. In data set [2], the EC95 is 1.2 µM and the EC50 was 0.5 µM.
`Cc1cc(SC2=C(O)CC(CCc3ccc(O)cc3)(C3CCCCC3)OC2=O)c(C(C)(C)C)cc1O` (stereo not drawn) [Example 10, 3-(2-tert-Butyl-4-hydroxy-5-methyl-phenylsulfanyl)-6-cyclohexyl-4-hydroxy-6-[2-(4-hydroxy-phenyl)-ethyl]-5,6-dihydro-pyran-2-one]: the IC50 at HIV-1 protease (setting [3]) is 0.0029 µM. In data set [1], the CC50 worked out at 73 µM. In addition, in data set [2], the 95% effect level (EC95) was put at 8.9 µM and the EC50 was 3.1 µM.
The like results for `Cc1cc(SC2=C(O)CC(C)(CCc3ccc(O)cc3)OC2=O)c(C(C)(C)C)cc1N` (stereo not drawn) [Example 11, 3-(4-Amino-2-tert-butyl-5-methyl-phenylsulfanyl)-4-hydroxy-6-[2-(4-hydroxy-phenyl)-ethyl]-6-methyl-5,6-dihydro-pyran-2-one monohydrochloride] were, in that order, 0.013 µM, above 100 µM, 9.1 µM and 3.7 µM.
The matching figures for `Cc1cc(SC2=C(O)CC(C)(CCc3ccc(O)cc3)OC2=O)c(C(C)(C)C)cc1NS(=O)(=O)c1ccc(C#N)cc1` (stereo not drawn) [Example 13, N-(5-tert-Butyl-4-{4-hydroxy-6-[2-(4-hydroxy-phenyl)-ethyl]-6-methyl-2-oxo-5,6-dihydro-2H-pyran-3-ylsulfanyl}-2-methyl-phenyl)-4-cyano-benzenesulfonamide]: 0.0021 µM, above 100 µM, 20 µM and 5 µM.
The like results for `Cc1cc(SC2=C(O)CC(CCc3ccc(O)cc3)(CCc3ccc(O)cc3)OC2=O)c(C(C)(C)C)cc1CO` [Example 14, 3-(2-tert-Buty-4-hydroxymethyl-5-methyl-phenylsulfanyl)-4-hydroxy-6,6-bis-[2-(4-hydroxyphenyl)ethyl]-5,6-dihydro-pyran-2-one] were, in that order, 0.0013 µM, 69 µM, 24 µM and 6.3 µM.
On to `Cc1cc(SC2=C(O)CC(CCc3ccc(N)cc3)(c3ccccc3)OC2=O)c(C(C)(C)C)cc1CO` (stereo not drawn) [Example 15, 6-[2-(4-aminophenyl)ethyl]-3-(2-tert-butyl-4-hydroxymethyl-5-methyl-phenylsulfanyl)-4-hydroxy-6-phenyl-5,6-dihydro-pyran-2-one], for which the IC50 on HIV-1 protease (setting [3]) came out at 0.0031 µM. This molecule registered a cytotoxic concentration (CC50) in data set [1] of 94 µM. In data set [2], the EC95 came out at 9.4 µM and the EC50 was 3.7 µM.
The like results for `Cc1cc(SC2=C(O)CC(CCc3ccc(N)cc3)(CCc3ccc(N)cc3)OC2=O)c(C(C)(C)C)cc1CO` [Example 16, 6,6-Bis-[2-(4-aminophenyl)ethyl]-3-(2-tert-butyl-4-hydroxymethyl-5-methyl-phenylsulfanyl)-4-hydroxy-5,6-dihydro-pyran-2-one] were, in that order, 0.0016 µM, 72 µM, 15 µM and 1.2 µM.
`Cc1cc(SC2=C(O)C[C@@](CCc3cccc(O)c3)(C3CCCC3)OC2=O)c(C(C)(C)C)cc1CO` [Example 40] gave a CC50 in data set [1] above 100 µM. For the same molecule, in data set [2], the EC95 is below 0.3 µM and the EC50 was below 0.3 µM.
`CCc1cc(SC2=C(O)CC(CCc3ccc(O)cc3)(C(C)C)OC2=O)c(C(C)(C)C)cc1CO` (stereo not drawn) [Example 97] yielded a CC50 in data set [1] above 100 µM. In addition, in data set [2], the EC95 came to 2.8 µM and the EC50 came to 0.8 µM.
The matching figures for `Cc1cc(CCC2(C(C)C)CC(O)=C(Sc3cc(C)c(CO)cc3C(C)(C)C)C(=O)O2)ccc1O` (stereo not drawn) [Example 100]: 84 µM, 0.9 µM and 0.33 µM.
